The target of one data set is T1, telomerase (Homo sapiens, UniProt O14746).
T1 construct: telomeric repeats added to an oligonucleotide by telomerase in the cell extract; endogenous in cells; host or cells: SiHa, C33A, CaSki and HeLa cervical carcinoma cell extracts (CHAPS lysis)
As to the kind of experiment: Inhibition of telomerase activity by TRAP-assay (telomeric repeat amplification, extracts of cervical carcinoma cell lines SiHa, C33A, CaSki, HeLa). The format is biochemical. As to conditions: concentration at which inhibition of telomerase activity is 50%. The procedure:
To test the inhibition of telomerase compounds prepared in this way, we used the method of amplification added telomeric repeats (TRAP-analysis). TRAP-analysis is a standard method for determining the activity of telomerase, due to some modification this method could be semi quantitative. The choice of method for detection of telomerase activity was determined by its wide coverage in the worlds literature, almost sensitivity, as well as the availability of equipment and reagents.
Telomeric repeats amplification protocol can be divided into three main steps: primer extension, amplification of the resulting product (s) and detection. In step lengthening telomeric repeats added to an oligonucleotide by telomerase in the cell extract. Telomerase recognizes it as a substrate (TS). In step of amplification of extension products of TS oligonucleotide by telomerase false signals may appear due to amplification of telomeres of chromosomes possibly have contained in the cell extract. To avoid this, the 5′-end of the oligonucleotide TS has no telomeric sequence, which prevents it to contact with telomeres, but is recognized as a telomerase substrate. Since human telomerase adds a series repeats with six nucleotides, the resulting lengthening of TS oligonucleotide by telomerase set of DNA fragments that differ in length synthesized. […]

By IC50 is commonly meant the concentration that gives 50% inhibition. For orientation: melting point means the temperature of the solid-liquid transition. In turn, `C=CCN1C(=O)/C(=C/c2ccccn2)N=C1SCCSC1=N/C(=C\c2ccccn2)C(=O)N1CC=C` [Example 3, (5Z,5′Z)-2,2′-(ethan-1,2-diyldisulfanyldiyl)bis(5-(pyridine-2-ylmethylene)-3-allyl-3,5-dihydro-4H-imidazole-4-on)] showed a melting point of 187 °C. This compound gave an IC50 against telomerase of 2000 nM.
